{"source": "ChEMBL document CHEMBL1201862", "about": "“PubChem BioAssay data set” (2004)", "assay_in_all_cases": "growth of human tumour cells (NCI), 48 h", "key": {"[1]": {"tested_on": "SW-620"}, "[2]": {"tested_on": "DMS-114"}, "[3]": {"tested_on": "HL-60"}, "[4]": {"tested_on": "A498"}, "[5]": {"tested_on": "SK-OV-3"}, "[6]": {"tested_on": "XF498"}, "[7]": {"tested_on": "OVCAR-4"}, "[8]": {"tested_on": "RXF 393"}, "[9]": {"tested_on": "LOX IMVI"}, "[10]": {"tested_on": "HCT-15"}, "[11]": {"tested_on": "EKVX"}, "[12]": {"tested_on": "HOP-92"}, "[13]": {"tested_on": "SF-539"}, "[14]": {"tested_on": "IGROV-1"}, "[15]": {"tested_on": "HCT-116"}, "[16]": {"tested_on": "OVCAR-5"}, "[17]": {"tested_on": "U-251"}, "[18]": {"tested_on": "COLO 205"}, "[19]": {"tested_on": "HCC 2998"}, "[20]": {"tested_on": "TK-10"}, "[21]": {"tested_on": "CCRF-CEM"}, "[22]": {"tested_on": "ACHN"}, "[23]": {"tested_on": "Malme-3M"}, "[24]": {"tested_on": "RXF 631"}, "[25]": {"tested_on": "DLD-1"}, "[26]": {"tested_on": "A549"}, "[27]": {"tested_on": "SNB-19"}, "[28]": {"tested_on": "MOLT-4"}, "[29]": {"tested_on": "SNB-75"}, "[30]": {"tested_on": "NCI-H226"}, "[31]": {"tested_on": "SNB-78"}, "[32]": {"tested_on": "NCI-H23"}, "[33]": {"tested_on": "SK-MEL-5"}, "[34]": {"tested_on": "UO-31"}, "[35]": {"tested_on": "NCI-H522"}, "[36]": {"tested_on": "K562"}, "[37]": {"tested_on": "UACC-62"}, "[38]": {"tested_on": "SK-MEL-28"}, "[39]": {"tested_on": "CAKI-1"}, "[40]": {"tested_on": "M19-MEL"}, "[41]": {"tested_on": "RPMI-8226"}, "[42]": {"tested_on": "OVCAR-8"}, "[43]": {"tested_on": "SN12C"}, "[44]": {"tested_on": "M14"}, "[45]": {"tested_on": "786-0"}, "[46]": {"tested_on": "NCI-H460"}, "[47]": {"tested_on": "HOP-62"}, "[48]": {"tested_on": "SF-268"}, "[49]": {"tested_on": "KM-20L2"}, "[50]": {"tested_on": "LXFL 529"}, "[51]": {"tested_on": "SK-MEL-2"}}, "note": "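How tested: cells in 96-well plates exposed to compound for 48 hours at five concentrations. Abbreviation: GI50, concentration required for 50% inhibition of growth.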 Activity calls are given as the source filed them. Rule as the data show it: active = GI50 up to about 1.1 µM and inactive = higher."}
{"compound": "CCOC(=O)C(=O)Nc1ccccc1C", "values": [{"measurement": "GI50", "setting": "[1]", "value": "> 100 µM (inactive)"}, {"measurement": "GI50", "setting": "[2]", "value": "> 100 µM (inactive)"}, {"measurement": "GI50", "setting": "[3]", "value": "29.4 µM (inactive)"}, {"measurement": "GI50", "setting": "[4]", "value": "> 100 µM (inactive)"}, {"measurement": "GI50", "setting": "[5]", "value": "> 100 µM (inactive)"}, {"measurement": "GI50", "setting": "[6]", "value": "24.9 µM (inactive)"}, {"measurement": "GI50", "setting": "[7]", "value": "> 100 µM (inactive)"}, {"measurement": "GI50", "setting": "[8]", "value": "> 100 µM (inactive)"}, {"measurement": "GI50", "setting": "[9]", "value": "> 100 µM (inactive)"}, {"measurement": "GI50", "setting": "[10]", "value": "> 100", "unit": "µM"}, {"measurement": "GI50", "setting": "[11]", "value": "> 100 µM (inactive)"}, {"measurement": "GI50", "setting": "[12]", "value": "> 100 µM (inactive)"}, {"measurement": "GI50", "setting": "[13]", "value": "> 100 µM (inactive)"}, {"measurement": "GI50", "setting": "[14]", "value": "> 100 µM (inactive)"}, {"measurement": "GI50", "setting": "[15]", "value": "> 100 µM (inactive)"}, {"measurement": "GI50", "setting": "[16]", "value": "> 100 µM (inactive)"}, {"measurement": "GI50", "setting": "[17]", "value": "> 100 µM (inactive)"}, {"measurement": "GI50", "setting": "[18]", "value": "> 100 µM (inactive)"}, {"measurement": "GI50", "setting": "[19]", "value": "> 100 µM (inactive)"}, {"measurement": "GI50", "setting": "[20]", "value": "> 100 µM (inactive)"}, {"measurement": "GI50", "setting": "[21]", "value": "> 100 µM (inactive)"}, {"measurement": "GI50", "setting": "[22]", "value": "> 100 µM (inactive)"}, {"measurement": "GI50", "setting": "[23]", "value": "> 100 µM (inactive)"}, {"measurement": "GI50", "setting": "[24]", "value": "> 100 µM (inactive)"}, {"measurement": "GI50", "setting": "[25]", "value": "> 100 µM (inactive)"}, {"measurement": "GI50", "setting": "[26]", "value": "> 100 µM (inactive)"}, {"measurement": "GI50", "setting": "[27]", "value": "> 100 µM (inactive)"}, {"measurement": "GI50", "setting": "[28]", "value": "> 100 µM (inactive)"}, {"measurement": "GI50", "setting": "[29]", "value": "> 100 µM (inactive)"}, {"measurement": "GI50", "setting": "[30]", "value": "> 100 µM (inactive)"}, {"measurement": "GI50", "setting": "[31]", "value": "> 100 µM (inactive)"}, {"measurement": "GI50", "setting": "[32]", "value": "> 100 µM (inactive)"}, {"measurement": "GI50", "setting": "[33]", "value": "> 100 µM (inactive)"}, {"measurement": "GI50", "setting": "[34]", "value": "> 100 µM (inactive)"}, {"measurement": "GI50", "setting": "[35]", "value": "> 100 µM (inactive)"}, {"measurement": "GI50", "setting": "[36]", "value": "> 100 µM (inactive)"}, {"measurement": "GI50", "setting": "[37]", "value": "> 100 µM (inactive)"}, {"measurement": "GI50", "setting": "[38]", "value": "> 100 µM (inactive)"}, {"measurement": "GI50", "setting": "[39]", "value": "> 100 µM (inactive)"}, {"measurement": "GI50", "setting": "[40]", "value": "> 100 µM (inactive)"}, {"measurement": "GI50", "setting": "[41]", "value": "> 100 µM (inactive)"}, {"measurement": "GI50", "setting": "[42]", "value": "> 100 µM (inactive)"}, {"measurement": "GI50", "setting": "[43]", "value": "> 100 µM (inactive)"}, {"measurement": "GI50", "setting": "[44]", "value": "> 100 µM (inactive)"}, {"measurement": "GI50", "setting": "[45]", "value": "> 100 µM (inactive)"}, {"measurement": "GI50", "setting": "[46]", "value": "> 100 µM (inactive)"}, {"measurement": "GI50", "setting": "[47]", "value": "> 100 µM (inactive)"}, {"measurement": "GI50", "setting": "[48]", "value": "> 100 µM (inactive)"}, {"measurement": "GI50", "setting": "[49]", "value": "> 100 µM (inactive)"}, {"measurement": "GI50", "setting": "[50]", "value": "> 100 µM (inactive)"}, {"measurement": "GI50", "setting": "[51]", "value": "> 100 µM (inactive)"}]}
